Experimental data: PMC11864979, “First-in-class ultralong-target-residence-time p38α inhibitors as a mitosis-targeted therapy for colorectal cancer” (Nature Cancer, 2025)
Read-outs that look alike come from different tables or passages of the source.

Experiments:
Test in all cases: selectivity profiling in a panel of 340 wild-type kinases (Reaction Biology Europe)
Type in all cases: binding
340 wild-type kinases [1] = target: T1, 340 wild-type kinases (Homo sapiens, UniProt P53671)
T1 construct: purchased Reaction Biology Europe
T1 sequence (P53671 whole entry): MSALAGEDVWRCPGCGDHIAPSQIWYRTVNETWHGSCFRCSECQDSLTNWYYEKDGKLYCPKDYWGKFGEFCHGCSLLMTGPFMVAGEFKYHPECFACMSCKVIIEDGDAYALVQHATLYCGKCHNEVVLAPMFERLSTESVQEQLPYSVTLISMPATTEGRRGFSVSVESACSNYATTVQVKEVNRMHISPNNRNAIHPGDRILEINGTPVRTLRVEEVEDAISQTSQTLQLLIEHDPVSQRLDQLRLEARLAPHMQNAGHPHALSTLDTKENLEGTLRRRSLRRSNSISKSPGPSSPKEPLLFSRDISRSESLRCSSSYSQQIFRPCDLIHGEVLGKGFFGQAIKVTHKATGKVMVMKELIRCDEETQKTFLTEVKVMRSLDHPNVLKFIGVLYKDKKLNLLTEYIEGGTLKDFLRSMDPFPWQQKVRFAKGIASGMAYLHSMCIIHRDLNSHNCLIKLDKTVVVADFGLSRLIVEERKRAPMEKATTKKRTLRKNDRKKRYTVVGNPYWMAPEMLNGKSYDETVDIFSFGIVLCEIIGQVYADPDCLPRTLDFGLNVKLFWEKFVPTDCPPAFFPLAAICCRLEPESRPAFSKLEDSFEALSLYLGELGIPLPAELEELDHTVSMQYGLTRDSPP

340 wild-type kinases [2] = target: T2, 340 wild-type kinases (Homo sapiens, UniProt Q9H422)
T2 construct: purchased Reaction Biology Europe
T2 sequence (Q9H422 whole entry): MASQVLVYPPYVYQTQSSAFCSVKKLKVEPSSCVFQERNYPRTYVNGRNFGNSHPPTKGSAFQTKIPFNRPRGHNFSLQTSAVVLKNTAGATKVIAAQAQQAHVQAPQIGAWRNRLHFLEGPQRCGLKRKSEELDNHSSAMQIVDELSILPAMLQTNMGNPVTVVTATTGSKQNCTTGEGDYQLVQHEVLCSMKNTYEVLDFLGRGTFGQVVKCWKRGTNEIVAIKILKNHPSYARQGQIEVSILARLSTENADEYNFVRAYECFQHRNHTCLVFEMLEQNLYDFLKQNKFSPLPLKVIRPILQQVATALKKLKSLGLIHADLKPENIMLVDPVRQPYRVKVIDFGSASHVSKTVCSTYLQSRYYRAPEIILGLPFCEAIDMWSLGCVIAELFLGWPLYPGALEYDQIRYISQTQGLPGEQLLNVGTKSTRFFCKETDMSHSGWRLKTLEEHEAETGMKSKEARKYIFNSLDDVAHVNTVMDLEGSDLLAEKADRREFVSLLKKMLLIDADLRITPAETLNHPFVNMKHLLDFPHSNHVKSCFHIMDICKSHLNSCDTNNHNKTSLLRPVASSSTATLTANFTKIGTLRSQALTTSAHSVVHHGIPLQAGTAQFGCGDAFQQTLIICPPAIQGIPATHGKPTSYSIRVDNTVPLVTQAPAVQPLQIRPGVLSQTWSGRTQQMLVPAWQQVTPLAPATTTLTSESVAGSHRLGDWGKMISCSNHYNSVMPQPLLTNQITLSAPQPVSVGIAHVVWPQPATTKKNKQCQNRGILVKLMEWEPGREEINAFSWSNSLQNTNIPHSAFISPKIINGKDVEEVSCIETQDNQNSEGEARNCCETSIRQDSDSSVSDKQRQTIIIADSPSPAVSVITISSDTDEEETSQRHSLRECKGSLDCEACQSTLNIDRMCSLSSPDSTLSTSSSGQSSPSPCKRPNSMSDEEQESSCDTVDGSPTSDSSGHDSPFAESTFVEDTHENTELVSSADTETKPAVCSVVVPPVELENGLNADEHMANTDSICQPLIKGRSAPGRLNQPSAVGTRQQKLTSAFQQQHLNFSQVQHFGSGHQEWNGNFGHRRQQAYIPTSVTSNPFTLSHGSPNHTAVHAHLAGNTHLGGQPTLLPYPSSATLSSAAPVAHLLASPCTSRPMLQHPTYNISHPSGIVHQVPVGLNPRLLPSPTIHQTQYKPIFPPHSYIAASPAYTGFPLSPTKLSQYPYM

340 wild-type kinases [3] = target: T3, 340 wild-type kinases (Homo sapiens, UniProt P43403)
T3 construct: purchased Reaction Biology Europe
T3 sequence (P43403 1-619): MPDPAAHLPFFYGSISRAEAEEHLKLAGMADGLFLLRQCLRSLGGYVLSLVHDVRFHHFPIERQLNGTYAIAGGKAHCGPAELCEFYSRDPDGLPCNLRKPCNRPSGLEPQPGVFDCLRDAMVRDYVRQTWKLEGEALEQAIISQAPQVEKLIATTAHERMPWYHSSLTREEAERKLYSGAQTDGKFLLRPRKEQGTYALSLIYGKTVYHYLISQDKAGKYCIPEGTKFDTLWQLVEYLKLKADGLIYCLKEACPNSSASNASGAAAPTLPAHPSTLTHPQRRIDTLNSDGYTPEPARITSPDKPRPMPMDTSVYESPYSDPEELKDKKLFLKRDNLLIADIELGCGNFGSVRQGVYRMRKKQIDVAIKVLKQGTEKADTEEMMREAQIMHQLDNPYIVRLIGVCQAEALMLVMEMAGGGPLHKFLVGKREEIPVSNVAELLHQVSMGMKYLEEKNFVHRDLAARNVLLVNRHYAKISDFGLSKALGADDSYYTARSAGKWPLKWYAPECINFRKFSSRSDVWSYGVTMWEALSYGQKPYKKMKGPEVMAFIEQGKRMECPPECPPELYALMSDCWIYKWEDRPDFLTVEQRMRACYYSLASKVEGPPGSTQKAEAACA

340 wild-type kinases [4] = target: T4, 340 wild-type kinases (Homo sapiens, UniProt P42684)
T4 construct: purchased Reaction Biology Europe
T4 sequence (P42684 whole entry): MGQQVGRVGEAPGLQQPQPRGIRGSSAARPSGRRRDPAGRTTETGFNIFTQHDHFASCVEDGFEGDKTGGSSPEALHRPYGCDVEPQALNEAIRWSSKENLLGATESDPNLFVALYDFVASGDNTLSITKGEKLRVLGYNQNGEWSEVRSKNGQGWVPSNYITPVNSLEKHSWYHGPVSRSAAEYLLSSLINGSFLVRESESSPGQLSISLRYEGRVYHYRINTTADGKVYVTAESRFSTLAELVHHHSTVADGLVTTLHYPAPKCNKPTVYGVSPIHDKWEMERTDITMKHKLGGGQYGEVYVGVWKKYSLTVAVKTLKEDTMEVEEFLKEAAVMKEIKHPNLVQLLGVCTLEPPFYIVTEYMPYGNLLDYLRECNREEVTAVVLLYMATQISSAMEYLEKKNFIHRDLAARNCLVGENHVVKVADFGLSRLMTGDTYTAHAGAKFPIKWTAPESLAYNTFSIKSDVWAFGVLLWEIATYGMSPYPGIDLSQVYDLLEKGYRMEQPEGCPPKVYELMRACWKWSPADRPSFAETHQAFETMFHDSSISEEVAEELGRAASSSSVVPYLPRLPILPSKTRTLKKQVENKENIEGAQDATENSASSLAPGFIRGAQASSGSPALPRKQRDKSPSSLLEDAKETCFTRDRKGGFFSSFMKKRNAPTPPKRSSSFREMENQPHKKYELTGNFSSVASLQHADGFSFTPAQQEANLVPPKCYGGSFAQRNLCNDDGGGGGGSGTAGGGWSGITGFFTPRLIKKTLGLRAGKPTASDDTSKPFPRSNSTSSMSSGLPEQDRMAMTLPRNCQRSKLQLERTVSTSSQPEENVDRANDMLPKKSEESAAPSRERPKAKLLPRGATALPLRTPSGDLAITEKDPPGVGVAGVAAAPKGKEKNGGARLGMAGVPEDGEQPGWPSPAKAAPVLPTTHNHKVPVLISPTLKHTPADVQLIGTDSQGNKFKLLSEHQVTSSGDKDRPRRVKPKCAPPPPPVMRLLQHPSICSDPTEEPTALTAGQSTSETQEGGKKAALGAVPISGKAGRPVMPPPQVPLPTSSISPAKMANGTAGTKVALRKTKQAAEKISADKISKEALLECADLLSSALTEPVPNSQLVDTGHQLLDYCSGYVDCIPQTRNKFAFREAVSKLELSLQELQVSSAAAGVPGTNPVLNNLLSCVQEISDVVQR

340 wild-type kinases [5] = target: T5, 340 wild-type kinases (Homo sapiens, UniProt P36888)
T5 construct: purchased Reaction Biology Europe
T5 sequence (P36888 27-993): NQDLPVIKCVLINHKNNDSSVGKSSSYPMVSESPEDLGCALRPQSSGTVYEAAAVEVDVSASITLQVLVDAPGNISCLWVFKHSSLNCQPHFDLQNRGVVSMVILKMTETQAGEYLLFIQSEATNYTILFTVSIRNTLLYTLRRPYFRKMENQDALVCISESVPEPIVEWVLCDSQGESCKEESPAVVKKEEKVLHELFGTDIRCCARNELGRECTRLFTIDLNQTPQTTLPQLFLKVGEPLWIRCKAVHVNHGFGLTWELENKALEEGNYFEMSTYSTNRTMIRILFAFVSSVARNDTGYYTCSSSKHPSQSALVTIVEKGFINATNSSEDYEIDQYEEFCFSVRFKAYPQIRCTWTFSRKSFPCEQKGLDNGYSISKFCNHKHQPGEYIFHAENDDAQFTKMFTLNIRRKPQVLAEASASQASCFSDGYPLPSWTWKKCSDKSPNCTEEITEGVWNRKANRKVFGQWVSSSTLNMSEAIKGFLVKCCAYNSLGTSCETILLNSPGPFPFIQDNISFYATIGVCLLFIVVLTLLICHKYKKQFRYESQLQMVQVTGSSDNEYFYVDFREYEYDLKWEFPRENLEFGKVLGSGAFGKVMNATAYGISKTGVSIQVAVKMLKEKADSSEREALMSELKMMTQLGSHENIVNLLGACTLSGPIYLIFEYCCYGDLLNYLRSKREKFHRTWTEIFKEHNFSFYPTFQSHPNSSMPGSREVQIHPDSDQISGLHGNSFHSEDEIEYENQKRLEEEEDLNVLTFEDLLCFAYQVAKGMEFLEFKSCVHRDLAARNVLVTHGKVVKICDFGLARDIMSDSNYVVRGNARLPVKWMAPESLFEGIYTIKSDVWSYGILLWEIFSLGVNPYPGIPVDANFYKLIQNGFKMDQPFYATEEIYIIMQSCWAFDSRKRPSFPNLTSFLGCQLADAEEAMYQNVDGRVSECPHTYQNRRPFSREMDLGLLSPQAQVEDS

340 wild-type kinases [6] = target: T6, 340 wild-type kinases (Homo sapiens, UniProt O00141)
T6 construct: purchased Reaction Biology Europe
T6 sequence (O00141 1-431): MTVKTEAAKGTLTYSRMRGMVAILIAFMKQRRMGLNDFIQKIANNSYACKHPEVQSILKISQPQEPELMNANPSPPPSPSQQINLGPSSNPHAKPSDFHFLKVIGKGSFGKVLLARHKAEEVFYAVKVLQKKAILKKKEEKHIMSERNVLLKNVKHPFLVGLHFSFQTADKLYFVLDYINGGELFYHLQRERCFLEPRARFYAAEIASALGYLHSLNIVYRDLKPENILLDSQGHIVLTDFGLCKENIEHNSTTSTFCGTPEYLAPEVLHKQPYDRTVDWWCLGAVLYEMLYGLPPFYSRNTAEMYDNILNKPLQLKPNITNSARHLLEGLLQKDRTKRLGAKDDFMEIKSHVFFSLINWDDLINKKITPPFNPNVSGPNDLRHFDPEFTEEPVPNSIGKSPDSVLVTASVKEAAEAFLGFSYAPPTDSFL

340 wild-type kinases [7] = target: T7, 340 wild-type kinases (Homo sapiens, UniProt Q9HAZ1)
T7 construct: purchased Reaction Biology Europe
T7 sequence (Q9HAZ1 whole entry): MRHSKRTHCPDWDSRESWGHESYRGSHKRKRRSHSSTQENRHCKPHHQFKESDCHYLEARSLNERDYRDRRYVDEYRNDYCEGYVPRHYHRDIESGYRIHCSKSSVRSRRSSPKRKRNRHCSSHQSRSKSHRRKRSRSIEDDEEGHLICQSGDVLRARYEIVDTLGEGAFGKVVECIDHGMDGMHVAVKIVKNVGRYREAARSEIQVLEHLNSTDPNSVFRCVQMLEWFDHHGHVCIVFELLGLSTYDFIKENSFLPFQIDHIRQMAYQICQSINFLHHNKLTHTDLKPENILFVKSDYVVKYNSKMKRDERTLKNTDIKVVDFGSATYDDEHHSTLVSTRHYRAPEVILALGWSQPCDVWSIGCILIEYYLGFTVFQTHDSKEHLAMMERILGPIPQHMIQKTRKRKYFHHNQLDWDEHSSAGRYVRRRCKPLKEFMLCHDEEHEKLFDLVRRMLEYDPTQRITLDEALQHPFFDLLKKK

`CNC(=O)c1ccc2c(c1)C(=O)c1ccc(Nc3ccc(F)c(NC(=O)C4CC4)c3)cc1CC2` [Compound 2015] gave a remaining activity at 0.2 µM (340 wild-type kinases [1]; 0.2 µM 2015, read-out: LIMK2 residual activity) of 114%, a remaining activity at 1 µM (340 wild-type kinases [1]; 1 µM 2015, read-out: LIMK2 residual activity) of 103% and a remaining activity at 0.2 µM (340 wild-type kinases [1]; LIMK2, 0.2 µM, read-out: residual activity) of 114%. For the same compound, the remaining activity at 1 µM (340 wild-type kinases [1]; LIMK2, 1 µM, read-out: residual activity) was 103%, the remaining activity at 0.2 µM (340 wild-type kinases [2]; 0.2 µM 2015, read-out: HIPK3 residual activity) was 104% and the remaining activity at 1 µM (340 wild-type kinases [2]; 1 µM 2015, read-out: HIPK3 residual activity) was 104%. The remaining activity at 0.2 µM (340 wild-type kinases [2]; HIPK3, 0.2 µM, read-out: residual activity) was 104%, the remaining activity at 1 µM (340 wild-type kinases [2]; HIPK3, 1 µM, read-out: residual activity) was 104% and the remaining activity at 0.2 µM (340 wild-type kinases [3]; 0.2 µM 2015, read-out: ZAP70 residual activity) was 122%. The remaining activity at 1 µM (340 wild-type kinases [3]; 1 µM 2015, read-out: ZAP70 residual activity) was 100%, the remaining activity at 0.2 µM (340 wild-type kinases [3]; ZAP70, 0.2 µM, read-out: residual activity) was 122% and the remaining activity at 1 µM (340 wild-type kinases [3]; ZAP70, 1 µM, read-out: residual activity) was 100%. The remaining activity at 0.2 µM (340 wild-type kinases [4]; 0.2 µM 2015, read-out: ABL2 residual activity) was 107%, the remaining activity at 1 µM (340 wild-type kinases [4]; 1 µM 2015, read-out: ABL2 residual activity) was 102% and the remaining activity at 0.2 µM (340 wild-type kinases [4]; ABL2, 0.2 µM, read-out: residual activity) was 107%. The remaining activity at 1 µM (340 wild-type kinases [4]; ABL2, 1 µM, read-out: residual activity) was 102%, the remaining activity at 0.2 µM (340 wild-type kinases [5]; 0.2 µM 2015, read-out: FLT3 residual activity) was 84.5% and the remaining activity at 1 µM (340 wild-type kinases [5]; 1 µM 2015, read-out: FLT3 residual activity) was 80%. For the same compound, the remaining activity at 0.2 µM (340 wild-type kinases [5]; FLT3, 0.2 µM, read-out: residual activity) was 84.5%, the remaining activity at 1 µM (340 wild-type kinases [5]; FLT3, 1 µM, read-out: residual activity) was 80% and the remaining activity at 0.2 µM (340 wild-type kinases [6]; 0.2 µM 2015, read-out: SGK1 residual activity) was 95.9%. The remaining activity at 1 µM (340 wild-type kinases [6]; 1 µM 2015, read-out: SGK1 residual activity) was 91.4%, the remaining activity at 0.2 µM (340 wild-type kinases [6]; SGK1, 0.2 µM, read-out: residual activity) was 95.8% and the remaining activity at 1 µM (340 wild-type kinases [6]; SGK1, 1 µM, read-out: residual activity) was 91.4%. It also gave a remaining activity at 0.2 µM (340 wild-type kinases [7]; 0.2 µM 2015, read-out: CLK4 residual activity) of 120%, a remaining activity at 0.2 µM (340 wild-type kinases [7]; CLK4, 0.2 µM, read-out: residual activity) of 120% and a remaining activity at 1 µM (340 wild-type kinases [7]; CLK4, 1 µM, read-out: residual activity) of 118%.
